Results taken from patent EP4678639A1, “SALT OF BENZIMIDAZOLE DERIVATIVE” (JW Pharmaceutical Corporation, priority 2023, dated 2024).
“Also recorded” adds a separate entry of the source. Structures can show the parent of a compound that is named as a salt. Where two headings read alike, the source gives them in different places.

Columns and labels:
[1] = Photostability test, ultraviolet light (200 W·hr/m2) exposure; details: for After Ultraviolet Light Exposure (200 W hr/m2)(%) Total Related substances / After Ultraviolet Light Exposure (200 W hr/m2)(%) Degradant: Table 10, UV 200 W·hr/m2, PE bag; for Initial (%) Total Related substances / Initial (%) Degradant: Table 10, initial; for Change (%) Degradant: Table 10, after UV exposure vs initial
Description: (§1) A photostability comparative test was conducted on each of the above-mentioned prepared tegoprazan acid addition salts. The test was conducted by exposing the sample to light with an energy of 200 W hr/m^2 of ultraviolet light and 1.2 Mlux hr of visible light in accordance with The International Council for Harmonisation of Technical Requirements for Pharmaceuticals for Human Use (ICH) guideline, with the samples packaged in a single PE bag and spread thinly enough to ensure exposure to the light source, taking humidity stability into consideration. The purity of the acid addition salts and the change in the amount of degradants at the initial time point and after exposure to ultraviolet light or visible light were measured by HPLC.

[2] = Solid-state accelerated stability test (40 ± 2 °C/RH 75 ± 5 %); details: for After 1 Month (%) Total Related substances / After 1 Month (%) Degradant / Change (%) Degradant: 40 ± 2 °C / RH 75 ± 5 %; for Initial (%) Total Related substances / Initial (%) Degradant: Table 7, initial; for Change in Quality (%) Accelerated (4 weeks) Purity / Change in Quality (%) Accelerated (4 weeks) Degradant: Table 12 summary; for Change (%) Degradant: 1 month vs initial; for Initial (%) Degradant: degradant of Formula 4
Description: Operation and Calculation: The blank solution, standard solution, and test solution were sequentially tested under the instrument operating conditions according to the liquid chromatography method in the General Test Methods of the 12th Edition of the Korean Pharmacopoeia, and the amount of related substances was calculated using the following equation. Amount of each related; substance (%) = (AT)/(AS) × (CS)/(CT) × (Molecular weight; of the sample)/(Molecular weight; of the standard; product) × P × (1)/(RR; F) [formula] AT = Area of each related substance peak obtained from the test solution AS = Area of the tegoprazan peak obtained from the standard solution CS = Concentration of standard solution (mg/mL) CT = Concentration of test solution (mg/mL) P = Purity/Assay/Potency (%) of standard product RRF = Relative response factor (1.0)
A solid-state stability comparative test was conducted on each of the above-mentioned prepared tegoprazan acid addition salts. The stability comparative test was conducted for 1 month under the conditions shown in Table 6 below in accordance with The International Council for Harmonisation of Technical Requirements for Pharmaceuticals for Human Use (ICH) guideline, and the purity of the acid addition salt, total related substances, and the content of degradants were measured by HPLC at the initial time point and after 1 month. Total related substances and degradants were measured according to the related substance test method (HPLC).

[3] = Solid-state stress stability test (humidity 90 % RH); details: for Initial (%) Total Related substances / Initial (%) Degradant: Table 9, initial; for Remarks: state of the solid; for Change in Quality (%) 90 % RH (4 weeks) Degradant / Change in Quality (%) 90 % RH (4 weeks) Purity: Table 12 summary
[4] = Solid-state stress stability test (temperature 60 °C); details: for After 1 Month (%) Total Related substances / total related substances increased after 1 month / After 1 Month (%) Degradant / change in appearance, change in the color of the solid / Change (%) Degradant / Remarks: 60 °C; for Initial (%) Total Related substances / Initial (%) Degradant: Table 8, initial; for Change in Quality (%) 60 °C (4 weeks) Purity / Change in Quality (%) 60 °C (4 weeks) Degradant: Table 12 summary; for After 1 Month (%) Total Related substances / After 1 Month (%) Degradant / change in appearance, change in the color of the solid / Remarks: 1 month; for Change (%) Degradant: 1 month vs initial; for Remarks: appearance
[5] = Photostability test, visible light (1.2 Mlux·hr) exposure; details: for Initial (%) Total Related substances / Initial (%) Degradant: Table 11, initial; for After (%) Total Related substances / After (%) Degradant: Table 11 under heading Visible Light (1.2 Mlux-hr) Exposure Test; for Change (%) Degradant: Table 11, after exposure vs initial; for Change in Quality (%) Light (Visible) Degradant: Table 12 summary
Description: as §1

[6] = Liquid stability comparative test (20 mg/mL in purified water, 40 °C, 24 hours, HPLC); type: physicochemical; details: for After 24 hours Purity (%) / After 24 hours Degradant (%): 40 °C; for solid precipitation / solution state: stored at 40 °C for 24 hours
Description: The analysis conditions are as follows.
Each sample was dissolved in purified water to prepare a solution with a concentration of 20 mg/mL, stored at an external temperature of 40 °C, and analyzed by HPLC at the initial time point and after 24 hours to measure purity, and the change in the generated degradant (Formula 4) was measured. The analysis of total related substances and degradants was performed by taking a liquid from a solution prepared at a concentration of 20 mg/mL, diluting it to a concentration of 4 mg/mL with the diluent of the related substance test method (HPLC), and measuring it as a test solution, and analyzing it according to the related substance test method (HPLC).

[7] = 20 mg/mL in purified water, initial time point
[8] = degradant of Formula 4, 20 mg/mL in purified water

Cc1nc2c(O[C@H]3CCOc4cc(F)cc(F)c43)cc(C(=O)N(C)C)cc2[nH]1 [Hydrochloride Salt (Amorphous Form)]
After Ultraviolet Light Exposure (200 W hr/m2)(%) Total Related substances [1]: 0.313%
Initial (%) Total Related substances [1]: 0.207%
After 1 Month (%) Total Related substances [2]: 0.467%
Initial (%) Total Related substances [2]: 0.207%
Change in Quality (%) Accelerated (4 weeks) Purity [2]: -0.260%
After 1 Month (%) Total Related substances ([3]; 90 % RH, 1 month): 0.335%
change ([3]; 90 % RH, 1 month): ≤ 0.15%
Initial (%) Total Related substances [3]: 0.207%
After 1 Month (%) Total Related substances [4]: 1.536%
Initial (%) Total Related substances [4]: 0.207%
Change in Quality (%) 60 °C (4 weeks) Purity [4]: -1.329%
Initial (%) Total Related substances [5]: 0.207%
After (%) Total Related substances [5]: 0.637%
Amount of Change Degradant (%) [6]: 0.21%
After 24 hours Purity (%) ([6]; 20 mg/mL in purified water): 99.69%
Initial Purity (%) [6, 7]: 99.94%

Cc1nc2c(O[C@H]3CCOc4cc(F)cc(F)c43)cc(C(=O)N(C)C)cc2[nH]1 [Hydrobromide Salt]
After Ultraviolet Light Exposure (200 W hr/m2)(%) Degradant [1]: 2.028%
After Ultraviolet Light Exposure (200 W hr/m2)(%) Total Related substances [1]: 2.265%
Change (%) Degradant [1]: 0.056%
Initial (%) Degradant [1]: 1.972%
Initial (%) Total Related substances [1]: 2.173%
After 1 Month (%) Degradant [2]: 2.188%
After 1 Month (%) Total Related substances [2]: 2.519%
Change (%) Degradant [2]: 0.216%
Initial (%) Total Related substances [2]: 2.173%
Initial (%) Degradant [2]: 1.972%
increase in total related substances after 1 month ([2]; accelerated stability): ≥ 0.3%
After 1 Month (%) Degradant ([3]; 90 % RH, 1 month): 3.698%
After 1 Month (%) Total Related substances ([3]; 90 % RH, 1 month): 3.922%
Change (%) Degradant ([3]; 90 % RH, 1 month vs initial): 1.726%
Initial (%) Degradant [3]: 1.972%
Initial (%) Total Related substances [3]: 2.173%
total related substances increased after 1 month [4]: ≥ 5.0%
After 1 Month (%) Degradant [4]: 7.787%
After 1 Month (%) Total Related substances [4]: 8.905%
change in appearance, change in the color of the solid [4]: change in appearance
Change (%) Degradant [4]: 5.815%
Remarks [4]: Discolorat ion
Initial (%) Degradant [4]: 1.972%
Initial (%) Total Related substances [4]: 2.173%
Remarks ([5]; Table 11, after exposure, appearance): Discolorat ion
Initial (%) Degradant [5]: 1.972%
Initial (%) Total Related substances [5]: 2.173%
After (%) Degradant [5]: 1.956%
After (%) Total Related substances [5]: 2.227%
changes in appearance ([5]; visible light exposure): changes in appearance

Cc1nc2c(O[C@H]3CCOc4cc(F)cc(F)c43)cc(C(=O)N(C)C)cc2[nH]1 [Methanesulfonate Salt (Amorphous Form)]
After Ultraviolet Light Exposure (200 W hr/m2)(%) Degradant [1]: 0.366%
After Ultraviolet Light Exposure (200 W hr/m2)(%) Total Related substances [1]: 0.599%
Change (%) Degradant [1]: 0.082%
Initial (%) Degradant [1]: 0.284%
Initial (%) Total Related substances [1]: 0.530%
Change in Quality (%) Light (Ultraviolet) Degradant ([1]; Table 12 summary): 0.082%
Change in Quality (%) Light (Ultraviolet) Purity ([1]; Table 12 summary): 0.069%
After 1 Month (%) Degradant [2]: 1.124%
After 1 Month (%) Total Related substances [2]: 1.653%
Change (%) Degradant [2]: 0.840%
Initial (%) Total Related substances [2]: 0.530%
Initial (%) Degradant [2]: 0.284%
Change in Quality (%) Accelerated (4 weeks) Degradant [2]: 0.840%
Change in Quality (%) Accelerated (4 weeks) Purity [2]: -1.123%
increase in total related substances after 1 month ([2]; accelerated stability): ≥ 0.3%
absorb moisture and deliquesce / melted ([3]; 90 % RH): absorb moisture and deliquesce
Remarks ([3]; 90 % RH, 1 month): Melted
Initial (%) Degradant [3]: 0.284%
Initial (%) Total Related substances [3]: 0.530%
Change in Quality (%) 90 % RH (4 weeks) Degradant [3]: Melted
Change in Quality (%) 90 % RH (4 weeks) Purity [3]: Melted
total related substances increased after 1 month [4]: ≥ 5.0%
After 1 Month (%) Degradant [4]: 9.245%
After 1 Month (%) Total Related substances [4]: 12.245%
change in appearance, change in the color of the solid [4]: change in appearance
Change (%) Degradant [4]: 8.961%
Remarks [4]: Discolorat ion
Initial (%) Degradant [4]: 0.284%
Initial (%) Total Related substances [4]: 0.530%
Change in Quality (%) 60 °C (4 weeks) Degradant [4]: 8.961%
Change (%) Degradant [5]: 0.154%
Initial (%) Degradant [5]: 0.284%
Initial (%) Total Related substances [5]: 0.530%
After (%) Degradant [5]: 0.438%
After (%) Total Related substances [5]: 0.909%
Change in Quality (%) Light (Visible) Degradant [5]: 0.154%
After 24 hours Purity (%) ([6]; 20 mg/mL in purified water): 99.34%
Initial Purity (%) [6, 7]: 99.90%
After 24 hours Degradant (%) [6, 8]: 0.552%
Initial Degradant (%) ([6]; degradant of Formula 4, 20 mg/mL in purified water, initial time point): 0.063%
Amount of Change Degradant (%) ([6]; initial vs after 24 hours at 40 °C): 0.49%

maleate
absorb moisture and deliquesce / melted ([3]; 90 % RH): deliquesced
solid precipitation / solution state [6]: a solid precipitated

Cc1nc2c(O[C@H]3CCOc4cc(F)cc(F)c43)cc(C(=O)N(C)C)cc2[nH]1 [Malate Salt]
After Ultraviolet Light Exposure (200 W hr/m2)(%) Degradant [1]: 0.011%
After Ultraviolet Light Exposure (200 W hr/m2)(%) Total Related substances [1]: 0.172%
Change (%) Degradant [1]: 0.007%
Initial (%) Degradant [1]: 0.004%
Initial (%) Total Related substances [1]: 0.146%
Change in Quality (%) Light (Ultraviolet) Degradant ([1]; Table 12 summary): 0.007%
After 1 Month (%) Degradant [2]: 0.049%
After 1 Month (%) Total Related substances [2]: 0.236%
Change (%) Degradant [2]: 0.045%
Initial (%) Total Related substances [2]: 0.146%
Initial (%) Degradant [2]: 0.004%
Change in Quality (%) Accelerated (4 weeks) Degradant [2]: 0.045%
Change in Quality (%) Accelerated (4 weeks) Purity [2]: -0.090%
purity change after 1 month ([2]; accelerated stability): ≤ 0.1%
absorb moisture and deliquesce / melted ([3]; 90 % RH): absorb moisture and deliquesce; also recorded: melted
Remarks ([3]; 90 % RH, 1 month): Melted
Initial (%) Degradant [3]: 0.004%
Initial (%) Total Related substances [3]: 0.146%
Change in Quality (%) 90 % RH (4 weeks) Degradant [3]: Melted
Change in Quality (%) 90 % RH (4 weeks) Purity [3]: Melted
After 1 Month (%) Degradant [4]: 1.320%
After 1 Month (%) Total Related substances [4]: 2.026%
Change (%) Degradant [4]: 1.316%
Initial (%) Degradant [4]: 0.004%
Initial (%) Total Related substances [4]: 0.146%
Change in Quality (%) 60 °C (4 weeks) Degradant [4]: 1.316%
Change in Quality (%) 60 °C (4 weeks) Purity [4]: -1.880%
Change (%) Degradant [5]: 0.031%
Initial (%) Degradant [5]: 0.004%
Initial (%) Total Related substances [5]: 0.146%
After (%) Degradant [5]: 0.035%
After (%) Total Related substances [5]: 0.263%
Change in Quality (%) Light (Visible) Degradant [5]: 0.031%
After 24 hours Purity (%) ([6]; 20 mg/mL in purified water): Solid precipitated
Initial Purity (%) [6, 7]: 99.98%
After 24 hours Degradant (%) [6, 8]: Solid precipitated
solid precipitation / solution state [6]: solid precipitation; also recorded: solids were precipitated
